Source: the NIST ThermoML archive (doi:10.1016/j.jct.2017.07.018)

Settings: for vapor or sublimation pressure: Liquid, Gas chromatography

OC12CC3CC(CC(C3)C1)C2 [1-adamantanol]
Settings	vapor or sublimation pressure [kPa]
298.15 K	0.0019
310 K	0.0062
320 K	0.015
330 K	0.035
340 K	0.074
350 K	0.15
360 K	0.28
370 K	0.51
380 K	0.88
390 K	1.5
400 K	2.3
410 K	3.6
420 K	5.4
430 K	7.9
440 K	11
450 K	16
460 K	22
470 K	29
480 K	38
490 K	49
500 K	62
521.2 K	101.33

C[C@@H]1CC[C@H]2C(C)(C)[C@H]3C[C@@]12CC[C@@]3(C)O [(+)-cedrol]
Settings	vapor or sublimation pressure [kPa]
298.15 K	7e-05
310 K	0.00029
320 K	0.00084
330 K	0.0022
340 K	0.0055
350 K	0.013
360 K	0.027
370 K	0.054
380 K	0.1
390 K	0.19
400 K	0.33
410 K	0.55
420 K	0.89
430 K	1.4
440 K	2.1
450 K	3.1
460 K	4.5
470 K	6.3
480 K	8.7
490 K	12
500 K	16
583.5 K	101.33

Settings	Normal melting temperature [°C]
Crystal, visual observation	86.00

C=CC(C)(O)CC/C=C(\C)CCC=C(C)C (centres undefined) [(E)-3,7,11-trimethyldodeca-1,6,10-trien-3-ol]
Settings	vapor or sublimation pressure [kPa]
298.15 K	6e-05
310 K	0.00024
320 K	0.00074
330 K	0.0021
340 K	0.0053
350 K	0.013
360 K	0.028
370 K	0.058
380 K	0.115
390 K	0.22
400 K	0.39
410 K	0.67
420 K	1.1
430 K	1.8
440 K	2.8
450 K	4.3
460 K	6.3
470 K	9.1
480 K	13
490 K	18
500 K	24
554.7 K	101.33

C=CC(C)(O)CC/C=C(/C)CCC=C(C)C (centres undefined) [(Z)-3,7,11-trimethyldodeca-1,6,10-trien-3-ol]
Settings	vapor or sublimation pressure [kPa]
298.15 K	7.5e-05
310 K	0.00032
320 K	0.001
330 K	0.0026
340 K	0.0067
350 K	0.016
360 K	0.034
370 K	0.071
380 K	0.14
390 K	0.26
400 K	0.46
410 K	0.79
420 K	1.3
430 K	2.1
440 K	3.3
450 K	4.9
460 K	7.2
470 K	10
480 K	15
490 K	20
500 K	27
550.3 K	101.33
